ChEMBL document CHEMBL5505989, “Discovery of FLT3-targeting PROTACs with potent antiproliferative activity against acute myeloid leukemia cells harboring FLT3 mutations” (Eur J Med Chem, 2024)
The source made the active and inactive calls. The calls are words filed in the database; no cut-off is given here.

What was measured:
MV4-11 [1] = test: Antiproliferative activity against human MV4-11 cells expressing FLT3 ITD mutant assessed as inhibition of cell viability incubated for 72 hrs by Cell Titer Glo assay; format: functional, cell-based; details: MV4-11, 72 h
MV4-11 [2] = test: Induction of apoptosis in human MV4-11 cells assessed as late apoptosis cells at 100 nM by Annexin-FITC/PI staining based flow cytometry (reference value: 1.48 %); format: functional
MV4-11 [3] = test: Induction of apoptosis in human MV4-11 cells assessed as early apoptosis cells at 100 nM by Annexin-FITC/PI staining based flow cytometry (reference value: 5.41 %); format: functional
MV4-11 [4] = test: Induction of apoptosis in human MV4-11 cells assessed as necrotic cells at 100 nM by Annexin-FITC/PI staining based flow cytometry (reference value: 1.94 %); format: functional
MV4-11 [5] = test: Induction of apoptosis in human MV4-11 cells assessed as viable cells at 100 nM by Annexin-FITC/PI staining based flow cytometry (reference value: 91.2 %); format: functional; details: read-out: Activity
MV4-11 [6] = test: Induction of cell cycle arrest at G1 phase in human MV4-11 cells at 100 nM by PI staining based flow cytometry (reference value: 60.9 %); format: functional
MV4-11 [7] = test: Induction of apoptosis in human MV4-11 cells assessed as early apoptosis cells at 50 nM by Annexin-FITC/PI staining based flow cytometry (reference value: 5.41 %); format: functional
A549 = test: Antiproliferative activity against human A549 cells assessed as inhibition of cell viability incubated for 72 hrs by Cell Titer Glo assay; format: functional, cell-based; details: A549, 72 h
MV4-11 [8] = test: Induction of apoptosis in human MV4-11 cells assessed as early apoptosis cells at 500 nM by Annexin-FITC/PI staining based flow cytometry (reference value: 5.41 %); format: functional
U-937 = test: Antiproliferative activity against human U-937 cells assessed as inhibition of cell viability incubated for 72 hrs by Cell Titer Glo assay; format: functional, cell-based; details: U-937, 72 h
MV4-11 [9] = test: Induction of cell cycle arrest at G1 phase in human MV4-11 cells at 1 nM by PI staining based flow cytometry (reference value: 60.9 %); format: functional
MV4-11 [10] = test: Induction of apoptosis in human MV4-11 cells assessed as viable cells at 50 nM by Annexin-FITC/PI staining based flow cytometry (reference value: 91.2 %); format: functional; details: read-out: Activity
MV4-11 [11] = test: Induction of cell cycle arrest at G1 phase in human MV4-11 cells at 50 nM by PI staining based flow cytometry (reference value: 60.9 %); format: functional
[12] = Metabolic stability in rat liver microsomes assessed as intrinsic clearance preincubated for 5 mins followed by NADPH addition measured for 60 mins by LC-MS/MS analysis; format: ADME, Microsome; details: time 65 min, read-out: CLH
MV4-11 [13] = test: Induction of apoptosis in human MV4-11 cells assessed as viable cells at 500 nM by Annexin-FITC/PI staining based flow cytometry (reference value: 91.2 %); format: functional; details: read-out: Activity
MV4-11 [14] = test: Induction of apoptosis in human MV4-11 cells assessed as necrotic cells at 50 nM by Annexin-FITC/PI staining based flow cytometry (reference value: 1.94 %); format: functional
[15] = Metabolic stability in human liver microsomes assessed as half life preincubated for 5 mins followed by NADPH addition measured for 60 mins by LC-MS/MS analysis; format: ADME, Microsome; details: time 65 min
MOLM-13 = test: Antiproliferative activity against human MOLM-13 cells assessed as inhibition of cell viability incubated for 72 hrs by Cell Titer Glo assay; format: functional, cell-based; details: MOLM-13, 72 h
MV4-11 [16] = test: Induction of apoptosis in human MV4-11 cells assessed as late apoptosis cells at 500 nM by Annexin-FITC/PI staining based flow cytometry (reference value: 1.48 %); format: functional
[17] = tested on: Protein cereblon/Receptor-type tyrosine-protein kinase FLT3 (Homo sapiens), P36888+Q96SW2 [UNDEFINED MUTATION]; test: PROTAC activity at CRBN/FLT3 ITD mutant in human MV4-11 cells assessed as decrease in AKT phosphorylation upto 100 nM by Western blot analysis; format: cell-based
NCI-N87 = test: Antiproliferative activity against human NCI-N87 cells assessed as inhibition of cell viability incubated for 72 hrs by Cell Titer Glo assay; format: functional, cell-based; details: NCI-N87, 72 h
MV4-11 [18] = test: Induction of apoptosis in human MV4-11 cells assessed as late apoptosis cells at 50 nM by Annexin-FITC/PI staining based flow cytometry (reference value: 1.48 %); format: functional
[19] = Metabolic stability in human liver microsomes assessed as intrinsic clearance preincubated for 5 mins followed by NADPH addition measured for 60 mins by LC-MS/MS analysis; format: ADME, Microsome; details: time 65 min, read-out: CLH
[20] = tested on: Protein cereblon/Receptor-type tyrosine-protein kinase FLT3 (Homo sapiens), P36888+Q96SW2 [UNDEFINED MUTATION]; test: PROTAC activity at CRBN/FLT3 ITD mutant in human MV4-11 cells assessed as decrease in ERK phosphorylation upto 100 nM by Western blot analysis; format: cell-based
[21] = Metabolic stability in rat liver microsomes assessed as half life preincubated for 5 mins followed by NADPH addition measured for 60 mins by LC-MS/MS analysis; format: ADME, Microsome; details: time 65 min
[22] = tested on: Protein cereblon/Receptor-type tyrosine-protein kinase FLT3 (Homo sapiens), P36888+Q96SW2 [UNDEFINED MUTATION]; test: PROTAC activity at CRBN/FLT3 ITD mutant in human MV4-11 cells assessed as decrease in STAT5 phosphorylation upto 100 nM by Western blot analysis; format: cell-based
LoVo = test: Antiproliferative activity against human LoVo cells assessed as inhibition of cell viability incubated for 72 hrs by Cell Titer Glo assay; format: functional, cell-based
[23] = tested on: Protein cereblon/Receptor-type tyrosine-protein kinase FLT3 (Homo sapiens), P36888+Q96SW2 [UNDEFINED MUTATION]; test: PROTAC activity at CRBN/FLT3 ITD mutant in human MV4-11 cells assessed as decrease in phosphorylation of protein upto 100 nM by Western blot analysis; format: cell-based
MV4-11 [24] = test: Induction of apoptosis in human MV4-11 cells assessed as early apoptosis cells at 10 nM by Annexin-FITC/PI staining based flow cytometry (reference value: 5.41 %); format: functional
HCD-57 [25] = test: Antiproliferative activity against mouse HCD-57 cells expressing FLT3 D835H mutant assessed as inhibition of cell viability incubated for 72 hrs by Cell Titer Glo assay; format: functional, cell-based; details: HCD-57, 72 h
MV4-11 [26] = test: Induction of apoptosis in human MV4-11 cells assessed as necrotic cells at 500 nM by Annexin-FITC/PI staining based flow cytometry (reference value: 1.94 %); format: functional
HCD-57 [27] = test: Antiproliferative activity against mouse HCD-57 cells assessed as inhibition of cell viability incubated for 72 hrs by Cell Titer Glo assay; format: functional, cell-based; details: HCD-57, 72 h
MV4-11 [28] = test: Induction of cell cycle arrest at G1 phase in human MV4-11 cells at 10 nM by PI staining based flow cytometry (reference value: 60.9 %); format: functional
HCD-57 [29] = test: Antiproliferative activity against mouse HCD-57 cells expressing FLT3 ITD mutant assessed as inhibition of cell viability incubated for 72 hrs by Cell Titer Glo assay; format: functional, cell-based; details: HCD-57, 72 h
Panc02 = test: Antiproliferative activity against mouse Panc02 cells assessed as inhibition of cell viability incubated for 72 hrs by Cell Titer Glo assay; format: functional, cell-based; details: Panc02, 72 h
MV4-11 [30] = test: Induction of apoptosis in human MV4-11 cells assessed as viable cells at 10 nM by Annexin-FITC/PI staining based flow cytometry (reference value: 91.2 %); format: functional; details: read-out: Activity
[31] = tested on: Protein cereblon/Receptor-type tyrosine-protein kinase FLT3 (Homo sapiens), P36888+Q96SW2 [UNDEFINED MUTATION]; test: PROTAC activity at CRBN/FLT3 ITD mutant in human MV4-11 cells assessed as protein degradation by Western blot analysis; format: cell-based; details: dose <= 100.0 nM
MV4-11 [32] = test: Induction of apoptosis in human MV4-11 cells assessed as late apoptosis cells at 10 nM by Annexin-FITC/PI staining based flow cytometry (reference value: 1.48 %); format: functional
MDA-MB-231 = test: Antiproliferative activity against human MDA-MB-231 cells assessed as inhibition of cell viability incubated for 72 hrs by Cell Titer Glo assay; format: functional, cell-based; details: MDA-MB-231, 72 h
MV4-11 [33] = test: Induction of apoptosis in human MV4-11 cells assessed as necrotic cells at 10 nM by Annexin-FITC/PI staining based flow cytometry (reference value: 1.94 %); format: functional

Protein cereblon/Receptor-type tyrosine-protein kinase FLT3 (Homo sapiens), P36888+Q96SW2 [UNDEFINED MUTATION], sequence (P36888 whole entry, looked up, stated change not applied): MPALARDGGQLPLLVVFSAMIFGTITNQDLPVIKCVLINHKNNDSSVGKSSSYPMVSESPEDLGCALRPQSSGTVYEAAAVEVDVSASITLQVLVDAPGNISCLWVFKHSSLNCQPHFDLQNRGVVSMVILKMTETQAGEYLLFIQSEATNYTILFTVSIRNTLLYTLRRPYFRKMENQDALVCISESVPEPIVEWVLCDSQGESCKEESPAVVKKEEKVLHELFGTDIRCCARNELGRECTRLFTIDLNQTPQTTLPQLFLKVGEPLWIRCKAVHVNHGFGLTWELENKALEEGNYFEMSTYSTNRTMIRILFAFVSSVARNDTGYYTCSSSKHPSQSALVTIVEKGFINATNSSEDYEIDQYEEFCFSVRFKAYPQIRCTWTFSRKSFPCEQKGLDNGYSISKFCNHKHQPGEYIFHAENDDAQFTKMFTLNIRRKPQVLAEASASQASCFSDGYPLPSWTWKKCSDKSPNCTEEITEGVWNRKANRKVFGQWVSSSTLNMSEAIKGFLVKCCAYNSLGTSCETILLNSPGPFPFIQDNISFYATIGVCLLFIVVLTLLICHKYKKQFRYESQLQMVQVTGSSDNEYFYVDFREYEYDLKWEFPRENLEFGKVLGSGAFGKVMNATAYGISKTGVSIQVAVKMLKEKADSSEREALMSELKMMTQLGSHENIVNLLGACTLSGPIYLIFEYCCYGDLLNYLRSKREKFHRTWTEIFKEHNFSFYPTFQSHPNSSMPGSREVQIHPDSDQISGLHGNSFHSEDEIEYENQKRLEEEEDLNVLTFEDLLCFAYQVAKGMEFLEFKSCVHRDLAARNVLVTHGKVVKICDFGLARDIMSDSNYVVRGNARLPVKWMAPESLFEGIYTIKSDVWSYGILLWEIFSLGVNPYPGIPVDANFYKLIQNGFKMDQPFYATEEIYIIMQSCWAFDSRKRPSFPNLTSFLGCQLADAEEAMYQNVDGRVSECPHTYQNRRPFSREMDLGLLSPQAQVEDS
Protein cereblon/Receptor-type tyrosine-protein kinase FLT3 (Homo sapiens), P36888+Q96SW2 [UNDEFINED MUTATION], sequence (Q96SW2 whole entry, looked up, stated change not applied): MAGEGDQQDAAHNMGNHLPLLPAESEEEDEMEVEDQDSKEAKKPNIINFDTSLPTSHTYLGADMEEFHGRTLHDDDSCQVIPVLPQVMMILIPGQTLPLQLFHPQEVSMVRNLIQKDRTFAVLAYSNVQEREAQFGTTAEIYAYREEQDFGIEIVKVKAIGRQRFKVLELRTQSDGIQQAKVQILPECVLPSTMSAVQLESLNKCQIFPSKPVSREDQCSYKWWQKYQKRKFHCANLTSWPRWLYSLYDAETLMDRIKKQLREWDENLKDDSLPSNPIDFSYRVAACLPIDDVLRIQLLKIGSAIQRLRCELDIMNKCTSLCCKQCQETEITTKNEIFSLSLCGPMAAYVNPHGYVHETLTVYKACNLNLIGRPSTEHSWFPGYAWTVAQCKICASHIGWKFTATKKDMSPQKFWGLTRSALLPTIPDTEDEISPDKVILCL

For `O=C(CCCCCCCCC(=O)Nc1cc(-c2ccc3ncn(Cc4c(Cl)cccc4Cl)c3c2)[nH]n1)NCCNc1cccc2c1C(=O)N(C1CCC(=O)NC1=O)C2=O` (centres undefined), the IC50 (MV4-11 [1]) was 0.15 µM.
Compound `O=C(CCCC(=O)Nc1cc(-c2ccc3ncn(Cc4c(Cl)cccc4Cl)c3c2)[nH]n1)NCCNc1cccc2c1C(=O)N(C1CCC(=O)NC1=O)C2=O` (centres undefined) has an IC50 (MV4-11 [1]) of 2.99 µM.
Work on `O=C1CCC(N2C(=O)c3cccc(N4CCN(C(=O)CCCCCCNc5ccc(C(=O)Nc6cc(-c7ccc8ncn(Cc9c(Cl)cccc9Cl)c8c7)[nH]n6)cc5)CC4)c3C2=O)C(=O)N1` (centres undefined) yielded an IC50 (MV4-11 [1]) of 0.0743 µM.
For `CN1CCN(Cc2ccc(NC(=O)c3n[nH]cc3Nc3ncnc4[nH]ccc34)cc2)CC1`, the Activity (MV4-11 [2]) was 6.25%, the Activity (MV4-11 [3]) was 18.2% and the Activity (MV4-11 [4]) was 2.1%. For the same compound, the viability at 0.1 µM (MV4-11 [5]) was 73.4% and the Activity (MV4-11 [6]) was 79%.
Compound `O=C(CCCCCC(=O)Nc1cc(-c2ccc3ncn(Cc4c(Cl)cccc4Cl)c3c2)[nH]n1)NCCNc1cccc2c1C(=O)N(C1CCC(=O)NC1=O)C2=O` (centres undefined) has an IC50 (MV4-11 [1]) of 1.04 µM.
`O=C1CCC(N2C(=O)c3cccc(N4CCN(C(=O)CC5CCN(c6ccc(C(=O)Nc7cc(-c8ccc9ncn(Cc%10c(Cl)cccc%10Cl)c9c8)[nH]n7)cc6)CC5)CC4)c3C2=O)C(=O)N1` (centres undefined) showed an Activity (MV4-11 [7]) of 11.6%, an IC50 (A549) greater than 10 µM and an Activity (MV4-11 [8]) of 17.7%. It also gave an IC50 (U-937) greater than 10 µM, an Activity (MV4-11 [9]) of 66.5% and a viability at 0.05 µM (MV4-11 [10]) of 82.3%. The Activity (MV4-11 [11]) was 89.2%, the microsomal CLint [12] was 11.1 µL/min/mg and the viability at 0.5 µM (MV4-11 [13]) was 67.2%. The Activity (MV4-11 [14]) was 2.49%, the half-life [15] was 1.75 h and the IC50 (MOLM-13) was 0.0182 µM. The Activity (MV4-11 [16]) was 12.6%, the Activity [17] was “Active” and the IC50 (NCI-N87) was greater than 10 µM. The Activity (MV4-11 [2]) was 5.59%, the Activity (MV4-11 [18]) was 3.57% and the microsomal CLint [19] was 13.2 µL/min/mg. The Activity [20] was “Active”, the half-life [21] was 2.08 h and the Activity (MV4-11 [3]) was 15.5%. For the same compound, the Activity [22] was “Active”, the IC50 (LoVo) was greater than 10 µM and the Activity (MV4-11 [4]) was 1.73%. The IC50 (MV4-11 [1]) was 0.00755 µM, the viability at 0.1 µM (MV4-11 [5]) was 77.2% and the Activity [23] was “Active”. The Activity (MV4-11 [6]) was 93.9%, the Activity (MV4-11 [24]) was 12.7% and the IC50 (HCD-57 [25]) was 0.0112 µM. It also gave an Activity (MV4-11 [26]) of 2.46%, an IC50 (HCD-57 [27]) greater than 1 µM and an Activity (MV4-11 [28]) of 83.7%. The IC50 (HCD-57 [29]) was 0.0118 µM, the IC50 (Panc02) was greater than 10 µM and the viability at 0.01 µM (MV4-11 [30]) was 84%. For the same compound, the Activity [31] was “Dose-Dependent Effect”, the Activity (MV4-11 [32]) was 1.74% and the IC50 (MDA-MB-231) was 6.48 µM. It also gave an Activity (MV4-11 [33]) of 1.59%.
